Measurements published in the NIST ThermoML archive (doi:10.1021/je050366x).
Where “and” joins values, the source holds several entries; their conditions need not be identical. Identical values can stand only once.

Test: xn = mol fraction of the nth substance listed
Details: for mass density: 100 kPa, Liquid

O=C(O)CCC(=O)O [butanedioic acid] + O
Ring tensiometer
Details | surface tension liquid-gas
279.9 K, x1 = 0.00716 | 70 mN/m
280.1 K, x1 = 0.00716 | 69.2 mN/m
280.2 K, x1 = 0.00716 | 70.3 mN/m
280.6 K, x1 = 0.00716 | 70 mN/m
284 K, x1 = 0.00716 | 69 mN/m
284.3 K, x1 = 0.00716 | 69.7 mN/m
284.7 K, x1 = 0.00716 | 69.3 mN/m
284.8 K, x1 = 0.00716 | 69.5 mN/m
285 K, x1 = 0.00716 | 69.6 mN/m
288.4 K, x1 = 0.00716 | 68.6 mN/m
288.9 K, x1 = 0.00716 | 69 mN/m and 68.8 mN/m and 68.7 mN/m
292.6 K, x1 = 0.00716 | 67.8 mN/m
293.1 K, x1 = 0.00716 | 68.5 mN/m
293.3 K, x1 = 0.00716 | 68.2 mN/m
293.4 K, x1 = 0.00716 | 68.2 mN/m
293.6 K, x1 = 0.00716 | 68.4 mN/m
296.8 K, x1 = 0.00716 | 67.2 mN/m
297.4 K, x1 = 0.00716 | 67.7 mN/m
297.6 K, x1 = 0.00716 | 68 mN/m
297.8 K, x1 = 0.00716 | 67.8 mN/m
297.9 K, x1 = 0.00716 | 67.8 mN/m
298 K, x1 = 0.0011 | 70.9 mN/m
298 K, x1 = 0.0022 | 70 mN/m
298 K, x1 = 0.0028 | 69.8 mN/m
298 K, x1 = 0.0033 | 69.4 mN/m
298 K, x1 = 0.0045 | 68.9 mN/m
298 K, x1 = 0.0056 | 68.5 mN/m
298 K, x1 = 0.0067 | 68.1 mN/m
298 K, x1 = 0.0071 | 67.7 mN/m
298 K, x1 = 0.0078 | 67.6 mN/m
298 K, x1 = 0.0089 | 67.3 mN/m
298 K, x1 = 0.01 | 66.6 mN/m
298 K, x1 = 0.0107 | 66.9 mN/m
298 K, x1 = 0.0111 | 66.4 mN/m
298 K, x1 = 0.0117 | 66.7 mN/m
301.7 K, x1 = 0.00716 | 67.5 mN/m
301.8 K, x1 = 0.00716 | 67.1 mN/m
302.3 K, x1 = 0.00716 | 67.3 mN/m
302.9 K, x1 = 0.00716 | 67.1 mN/m

298 K
Details | mass density
x1 = 0.0011 | 991 kg/m3
x1 = 0.0012 | 997 kg/m3
x1 = 0.0022 | 993 kg/m3 and 1003 kg/m3
x1 = 0.0028 | 996 kg/m3
x1 = 0.0033 | 997 kg/m3
x1 = 0.0037 | 1001 kg/m3
x1 = 0.0045 | 998 kg/m3
x1 = 0.0047 | 1002 kg/m3
x1 = 0.0056 | 1001 kg/m3
x1 = 0.0067 | 1002 kg/m3
x1 = 0.0068 | 1008 kg/m3
x1 = 0.0078 | 1005 kg/m3
x1 = 0.0089 | 1007 kg/m3
x1 = 0.01 | 1009 kg/m3
x1 = 0.011 | 1010 kg/m3

O=C(O)/C=C\C(=O)O [cis-1,4-butenedioic acid] + O
Details | mass density, Pycnometric method [kg/m3] | surface tension liquid-gas, Ring tensiometer
278.3 K, x1 = 0.012 | – | 69.9 mN/m
278.7 K, x1 = 0.06 | – | 64.3 mN/m
279.2 K, x1 = 0.012 | – | 69.8 mN/m
280.4 K, x1 = 0.06 | – | 64.4 mN/m
280.5 K, x1 = 0.06 | – | 64.4 mN/m
283.5 K, x1 = 0.012 | – | 69.2 mN/m
283.5 K, x1 = 0.06 | – | 63.7 mN/m
283.7 K, x1 = 0.012 | – | 69.4 mN/m
284.2 K, x1 = 0.06 | – | 64 mN/m
284.7 K, x1 = 0.06 | – | 63.9 mN/m
284.9 K, x1 = 0.06 | – | 63.5 mN/m
287.4 K, x1 = 0.012 | – | 68.7 mN/m
287.9 K, x1 = 0.012 | – | 68.6 mN/m
288.4 K, x1 = 0.06 | – | 63.4 mN/m
288.6 K, x1 = 0.06 | – | 63.6 mN/m
288.8 K, x1 = 0.06 | – | 63.1 mN/m
289.1 K, x1 = 0.06 | – | 63.2 mN/m
292.8 K, x1 = 0.012 | – | 68 mN/m and 68.2 mN/m
292.8 K, x1 = 0.06 | – | 62.8 mN/m
292.9 K, x1 = 0.06 | – | 62.6 mN/m
293.4 K, x1 = 0.06 | – | 62.9 mN/m
296.2 K, x1 = 0.06 | – | 62.1 mN/m
297 K, x1 = 0.012 | – | 67.5 mN/m
297.1 K, x1 = 0.06 | – | 62.4 mN/m
297.2 K, x1 = 0.012 | – | 67.7 mN/m
297.5 K, x1 = 0.012 | – | 67.6 mN/m
297.7 K, x1 = 0.06 | – | 62.3 mN/m
298 K, x1 = 0.008 | 1016 | 68 mN/m
298 K, x1 = 0.0116 | – | 67.6 mN/m
298 K, x1 = 0.017 | 1031 | 65.9 mN/m
298 K, x1 = 0.0267 | – | 64.1 mN/m
298 K, x1 = 0.027 | 1048 | –
298 K, x1 = 0.037 | 1063 | –
298 K, x1 = 0.0374 | – | 61.4 mN/m
298 K, x1 = 0.0376 | – | 61.4 mN/m
298 K, x1 = 0.0489 | – | 62.2 mN/m
298 K, x1 = 0.049 | 1084 | –
298 K, x1 = 0.0579 | – | 61.2 mN/m
298 K, x1 = 0.06 | – | 62.3 mN/m
298 K, x1 = 0.062 | 1103 | –
298 K, x1 = 0.0627 | – | 60.4 mN/m
298 K, x1 = 0.0764 | – | 58.8 mN/m
298 K, x1 = 0.077 | 1121 | –
298 K, x1 = 0.085 | – | 60.3 mN/m
298 K, x1 = 0.0932 | – | 59.7 mN/m
298 K, x1 = 0.094 | 1135 | –
298 K, x1 = 0.1083 | – | 59.5 mN/m
300.9 K, x1 = 0.06 | – | 61.4 mN/m
301.2 K, x1 = 0.06 | – | 61.5 mN/m
301.6 K, x1 = 0.06 | – | 61.8 mN/m
302 K, x1 = 0.06 | – | 61.8 mN/m
302.3 K, x1 = 0.012 | – | 66.9 mN/m
302.7 K, x1 = 0.012 | – | 66.8 mN/m

CC(=O)[C@H]1C[C@@H](CC(=O)O)C1(C)C [cis-pinonic acid] + O
Details | mass density [kg/m3] | surface tension liquid-gas [mN/m]
280.7 K, Ring tensiometer, x1 = 0.00035 | – | 61.7
282.5 K, Ring tensiometer, x1 = 0.00035 | – | 61.6
283.6 K, Ring tensiometer, x1 = 0.00035 | – | 61.6
283.8 K, Ring tensiometer, x1 = 0.00035 | – | 61.4
284.4 K, Ring tensiometer, x1 = 0.00035 | – | 61.3
285.4 K, Ring tensiometer, x1 = 0.00035 | – | 61.5
287.5 K, Ring tensiometer, x1 = 0.00035 | – | 61.1
288 K, Ring tensiometer, x1 = 0.00035 | – | 60.8
288.8 K, Ring tensiometer, x1 = 0.00035 | – | 60.8
289.1 K, Ring tensiometer, x1 = 0.00035 | – | 60.9
291.9 K, Ring tensiometer, x1 = 0.00035 | – | 60.4
292.5 K, Ring tensiometer, x1 = 0.00035 | – | 60.7
292.9 K, Ring tensiometer, x1 = 0.00035 | – | 60.5
293.9 K, Ring tensiometer, x1 = 0.00035 | – | 60.2
296.8 K, Ring tensiometer, x1 = 0.00035 | – | 60.1
297.1 K, Ring tensiometer, x1 = 0.00035 | – | 60.2
298 K, Pycnometric method, x1 = 0.00018 | 995 | –
298 K, Pycnometric method, x1 = 0.00025 | 993 | –
298 K, Pycnometric method, x1 = 0.00033 | 995 | –
298 K, Pycnometric method, x1 = 0.00041 | 997 | –
298 K, Pycnometric method, x1 = 0.0005 | 996 | –
298 K, Pycnometric method, x1 = 0.00058 | 994 | –
298 K, Pycnometric method, x1 = 0.00066 | 994 | –
298 K, Pycnometric method, x1 = 0.00083 | 997 | –
298.1 K, Ring tensiometer, x1 = 0.00035 | – | 59.7
301.2 K, Ring tensiometer, x1 = 0.00035 | – | 59.4
301.7 K, Ring tensiometer, x1 = 0.00035 | – | 59.9
302.1 K, Ring tensiometer, x1 = 0.00035 | – | 59.1

298 K
Details | surface tension liquid-gas [mN/m]
x1 = 2e-05 | 69.5
x1 = 4e-05 | 66.8
x1 = 0.00011 | 64.4
x1 = 0.00018 | 61.4
x1 = 0.00024 | 61.2
x1 = 0.00034 | 59
x1 = 0.00041 | 57.2
x1 = 0.0005 | 56.3
x1 = 0.00058 | 55.8
x1 = 0.00065 | 56.2
x1 = 0.00083 | 53.9
